# Assays:
# [1] = target: T1, Muscarinic acetylcholine receptor M1 (Rattus norvegicus, UniProt P08482); assay: Affinity constant measured against M1 muscarinic receptor in rat cortex
# T1 sequence (P08482 whole entry): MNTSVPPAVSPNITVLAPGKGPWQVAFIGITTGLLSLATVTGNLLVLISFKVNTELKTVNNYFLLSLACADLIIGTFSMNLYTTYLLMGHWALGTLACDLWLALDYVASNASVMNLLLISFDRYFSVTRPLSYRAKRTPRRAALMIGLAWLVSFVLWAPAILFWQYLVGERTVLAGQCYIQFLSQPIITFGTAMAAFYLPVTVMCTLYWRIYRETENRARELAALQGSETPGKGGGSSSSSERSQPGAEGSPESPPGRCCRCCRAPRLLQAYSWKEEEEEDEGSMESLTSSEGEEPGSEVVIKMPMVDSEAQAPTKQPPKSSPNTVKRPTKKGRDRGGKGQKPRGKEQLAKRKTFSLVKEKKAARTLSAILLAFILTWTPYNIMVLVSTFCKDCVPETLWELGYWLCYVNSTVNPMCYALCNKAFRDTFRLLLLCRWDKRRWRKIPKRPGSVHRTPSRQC
# [2] = target: Muscarinic acetylcholine receptor M3 (Cavia porcellus, UniProt Q8VH26); assay: Antagonistic activity measured in isolated guinea pig […] (M3 receptor); type: functional, tissue-based; settings: read-out: pA2 (converted)
# Sequence of Muscarinic acetylcholine receptor M3 (Cavia porcellus, UniProt Q8VH26) (Q8VH26 whole entry): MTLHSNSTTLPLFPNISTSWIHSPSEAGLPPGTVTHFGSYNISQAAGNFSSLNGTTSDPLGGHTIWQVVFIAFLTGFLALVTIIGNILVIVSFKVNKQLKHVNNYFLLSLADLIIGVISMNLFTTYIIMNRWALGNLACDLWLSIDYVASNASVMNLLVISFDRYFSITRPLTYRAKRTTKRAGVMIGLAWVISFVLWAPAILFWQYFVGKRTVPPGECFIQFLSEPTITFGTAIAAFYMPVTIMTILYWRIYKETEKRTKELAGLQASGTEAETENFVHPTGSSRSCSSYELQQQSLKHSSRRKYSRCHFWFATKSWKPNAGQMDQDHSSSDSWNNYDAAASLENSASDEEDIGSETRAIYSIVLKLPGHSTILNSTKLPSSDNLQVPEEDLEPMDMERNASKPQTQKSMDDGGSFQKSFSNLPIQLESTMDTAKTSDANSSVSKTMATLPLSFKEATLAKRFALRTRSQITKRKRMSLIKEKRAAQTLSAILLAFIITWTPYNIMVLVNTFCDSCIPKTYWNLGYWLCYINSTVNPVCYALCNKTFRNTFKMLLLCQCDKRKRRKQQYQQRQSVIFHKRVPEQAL
# [3] = target: T2, Muscarinic acetylcholine receptor M4 (Rattus norvegicus, UniProt P08485); assay: Affinity constant measured against M4 muscarinic receptor rat NG108-15 cells; type: cell-based
# T2 sequence (P08485 whole entry): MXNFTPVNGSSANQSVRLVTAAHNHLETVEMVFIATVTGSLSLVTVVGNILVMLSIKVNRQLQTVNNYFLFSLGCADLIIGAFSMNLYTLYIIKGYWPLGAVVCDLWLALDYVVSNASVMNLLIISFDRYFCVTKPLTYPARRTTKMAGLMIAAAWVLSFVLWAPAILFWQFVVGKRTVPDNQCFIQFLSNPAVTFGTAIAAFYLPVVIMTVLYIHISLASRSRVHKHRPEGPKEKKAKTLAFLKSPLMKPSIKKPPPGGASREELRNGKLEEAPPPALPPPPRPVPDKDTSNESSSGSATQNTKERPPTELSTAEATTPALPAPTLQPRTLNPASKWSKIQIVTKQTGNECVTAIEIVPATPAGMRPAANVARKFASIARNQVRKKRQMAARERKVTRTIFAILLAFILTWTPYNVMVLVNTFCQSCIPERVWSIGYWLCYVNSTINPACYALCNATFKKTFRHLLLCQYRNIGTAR
# [4] = target: Muscarinic acetylcholine receptor M3 (Rattus norvegicus, UniProt P08483); assay: Affinity constant measured against M3 muscarinic receptor in rat submaxillary gland; type: tissue-based
# Sequence of Muscarinic acetylcholine receptor M3 (Rattus norvegicus, UniProt P08483) (P08483 whole entry): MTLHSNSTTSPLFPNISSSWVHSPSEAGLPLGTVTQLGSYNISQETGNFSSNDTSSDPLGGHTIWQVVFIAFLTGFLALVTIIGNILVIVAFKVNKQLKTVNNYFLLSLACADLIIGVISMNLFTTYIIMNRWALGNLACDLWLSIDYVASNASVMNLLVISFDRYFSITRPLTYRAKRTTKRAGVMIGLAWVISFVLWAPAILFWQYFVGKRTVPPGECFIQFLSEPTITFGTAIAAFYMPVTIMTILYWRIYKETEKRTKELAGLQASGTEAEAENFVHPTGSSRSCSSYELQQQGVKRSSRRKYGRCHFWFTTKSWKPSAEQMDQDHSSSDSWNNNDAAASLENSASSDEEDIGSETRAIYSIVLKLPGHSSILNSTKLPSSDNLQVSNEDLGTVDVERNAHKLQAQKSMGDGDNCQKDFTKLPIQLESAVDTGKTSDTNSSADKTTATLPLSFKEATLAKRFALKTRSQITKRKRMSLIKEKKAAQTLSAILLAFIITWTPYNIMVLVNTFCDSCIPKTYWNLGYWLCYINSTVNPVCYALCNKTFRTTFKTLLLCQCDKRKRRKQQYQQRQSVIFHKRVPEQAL
# [5] = target: T3, Muscarinic acetylcholine receptor M2 (Homo sapiens, UniProt P08172); assay: Antagonistic activity measured in isolated guinea pig left atrium (M2 receptor); type: functional, tissue-based, Cavia porcellus, Cardiac atrium; settings: target entry is the homologue from another species; read-out: pA2 (converted)
# T3 sequence (P08172 whole entry): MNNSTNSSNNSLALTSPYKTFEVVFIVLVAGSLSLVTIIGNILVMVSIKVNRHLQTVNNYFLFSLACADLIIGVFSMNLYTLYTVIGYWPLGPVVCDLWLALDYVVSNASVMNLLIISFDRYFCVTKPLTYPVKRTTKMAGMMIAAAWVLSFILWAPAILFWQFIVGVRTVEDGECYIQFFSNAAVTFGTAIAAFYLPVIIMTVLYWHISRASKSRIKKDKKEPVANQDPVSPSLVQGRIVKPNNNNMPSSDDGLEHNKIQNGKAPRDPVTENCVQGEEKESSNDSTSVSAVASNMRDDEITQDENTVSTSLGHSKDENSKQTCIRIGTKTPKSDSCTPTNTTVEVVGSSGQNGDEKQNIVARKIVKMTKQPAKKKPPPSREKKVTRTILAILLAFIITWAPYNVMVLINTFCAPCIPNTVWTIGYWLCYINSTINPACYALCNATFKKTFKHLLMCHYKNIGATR
# [6] = test system: Muscarinic acetylcholine receptors M2 & M3 (Cavia porcellus); assay: Selectivity ratio between atrium (M2) and ileum (M3) was determined
Compound,Ki [1] [nM],Kb [2] [nM],Ki [3] [nM],Ki [4] [nM],Kb [5] [nM],Selectivity ratio [6]
CCN(CC)CCCCC1CCN(CC(=O)N2c3ccccc3C(=O)Nc3cccnc32)CC1,25.1,251,10,158,,
CN(CCCCCCCCN(C)CCCCCCN(CC(=O)N1c2ccccc2C(=O)Nc2cccnc21)CC(=O)N1c2ccccc2C(=O)Nc2cccnc21)CCCCCCNCC(=O)N1c2ccccc2C(=O)Nc2cccnc21 [TRIPITRAMINE],23.4,282,11.7,646,,
CN(CCCCCCCCN(C)CCCCCCNCC(=O)N1c2ccccc2C(=O)Nc2cccnc21)CCCCCCNCC(=O)N1c2ccccc2C(=O)Nc2cccnc21,,126,,,0.724,
COc1ccccc1CNCCCCCCNCCCCCCCCNCCCCCCNCc1ccccc1OC [METHOCTRAMINE],,479,26.3,1100,,
COc1ccccc1CNCCCCCCN(C)CCCCCCCCN(C)CCCCCCNCc1ccccc1OC,,603,,,12.6,48

# From ChEMBL document CHEMBL1126912 (J Med Chem, 1993)
